In publication PMC8037948, “Assessing the In Vitro Inhibitory Effects on Key Enzymes Linked to Type-2 Diabetes and Obesity and Protein Glycation by Phenolic Compounds of Lauraceae Plant Species Endemic to the Laurisilva Forest” (Molecules, 2021):

Columns and labels:
[1] = target: T1, rat α-glucosidase (intestinal acetone powder from rat); experiment: p-nitrophenyl alpha-D-glucopyranoside hydrolysis, absorbance at […] nm; format: biochemical; details: alpha-pNPG, 0.1 M phosphate pH 6.9, 37 °C, 20 min; crude intestinal extract
T1 construct: gene Si; supernatant of rat intestinal acetone powder (Sigma-Aldrich), crude extract; several alpha-glucosidases

[2] = target: T2, human aldose reductase (HAR) (Homo sapiens, UniProt P15121); experiment: NADPH absorbance at […] nm; format: biochemical
T2 construct: gene AKR1B1; commercial enzyme from Prozomix

Row | α-Glucosidase [1] [mg/mL] | IC50 [2] [µM] | Structure (SMILES)
1 | 0.01 ± 0.01 |  | OC[C@H]1NC[C@H](O)[C@@H](O)[C@@H]1O [1-Deoxynojirimycin]
2 | 0.12 ± 0.01 |  | C[C@H]1O[C@H](O[C@H]2[C@H](O)[C@@H](O)[C@@H](O[C@H]3[C@H](O)[C@@H](O)C(O)O[C@@H]3CO)O[C@@H]2CO)[C@H](O)[C@@H](O)[C@@H]1N[C@H]1C=C(CO)[C@@H](O)[C@H](O)[C@H]1O (stereo partly drawn) [Acarbose]
3 |  | 2620 | Oc1cc(O)c2c(c1)O[C@H](c1ccc(O)c(O)c1)[C@@H](O)C2 [(+)-Catechin]
